Numbers after ± are expanded uncertainties.
Conditions: Crystal; visual observation

- Normal melting temperature: 198.40 ± 1.2 °C
SMILES: F[P-](F)(F)(F)(F)F.F[P-](F)(F)(F)(F)F.c1cc[n+](CCCCC[n+]2ccccc2)cc1 [1,1'-(1,5-pentanediyl)bis-pyridinium hexafluorophosphate]

From the NIST ThermoML archive (doi:10.1021/je900355h)
